The source of these data is ChEMBL document CHEMBL4118149, “1,2,4-Triazolsulfone: A novel isosteric replacement of acylsulfonamides in the context of NaV1.7 inhibition” (Bioorg Med Chem Lett, 2018).

Data set [1] is described as follows: Dissociation constant, pKa of the compound by capillary electrophoresis method. Type of data set: physicochemical.
A short description of data set [2]: Volume of distribution at steady state in Sprague-Dawley rat at 0.5 mg/kg, iv. Type of data set: ADME, organism-based. Conditions: in vivo, read-out: Vdss.
Data set [3] in a line: Oral bioavailability in Sprague-Dawley rat at 10 mg/kg. Conditions: in vivo. Type of data set: ADME, organism-based.
A short description of data set [4]: Kinetic solubility of the compound in simulated intestinal fluid. It counts as physicochemical. To be noted: simulated gi fluid.

In general, pKa refers to the pH at which an ionisable group is half protonated. Consider `O=C(O)CNC(=O)c1cc(F)c(COc2ccc(Cl)c(Cl)c2)cc1F`, for which, in data set [1], the pKa came to 3.4.
Turning to `CC(C)COc1ncc(-c2cc(F)c(-c3nnc(S(=O)(=O)C4CCC4)[nH]3)cc2F)cc1Cl`, in data set [2], the Vd was determined as 0.7 L/kg.
`CS(=O)(=O)c1nnc(-c2cc(F)c(COc3ccc(Cl)c(Cl)c3)cc2F)[nH]1` showed a pKa in data set [1] of 4.8.
With `CC(=O)NS(=O)(=O)c1cc(F)c(COc2ccc(Cl)c(Cl)c2)cc1F`, in data set [1], the pKa came out at 3.7.
Same read-out and setting: next, `O=C(O)c1cc(F)c(COc2ccc(Cl)c(Cl)c2)cc1F`: 3.1; `CS(=O)(=O)NC(=O)c1cc(F)c(COc2ccc(Cl)c(Cl)c2)cc1F`: 3.1.
Same read-out and setting: the result for `O=c1[nH]c(-c2cc(F)c(COc3ccc(Cl)c(Cl)c3)cc2F)no1` reads 4.3.
As for `O=S(=O)(CC1CC1)c1nnc(-c2cc(F)c(-c3cnc(Oc4ccccc4C(F)(F)F)c(Cl)c3)cc2F)[nH]1`, in data set [3], the bioavailability turned out to be 140%. This compound had a Kinetic solubility in data set [4] of 101 µM. Also, the Vd in data set [2] was found to be 0.37 L/kg.
